Measurements as given in patent US11072634B2, “Inhibitors of transglutaminases” (Zedira GmbH, priority 2016, dated 2021).
Where a SMILES comes first, the peptide text is derived from it. [ ]: non-standard residue; d: D form. The star is where a group is joined. DON = [N-]=[N+]=CC(=O)CC[C@H](N)C(=O)O; Cbz = O=C(OCc1ccccc1)*

Experiments:
CaCo2 and Huh7 cells = test: Cytotoxicity of transglutaminase inhibitors (BrdU and EZ4U); format: cell-based, human; conditions: BrdU and EZ4U, depending on the cell type
Method: (§1) The following cell lines are used for determination of cytotoxicity: • CaCo2 (human colon carcinoma cell line) • Huh7 (human liver carcinoma cell line).
(§2) Cells are cultivated in DMEM/10% FCS at 37° C. and 5% CO2 in a 96 well plate with an initial seeding density of 2×10^4 cells/well.
(§3) Transglutaminase inhibitors are added to the cells with final concentrations from 0.1 μM to 1 mM one hour after seeding. The different inhibitor dilutions are prepared in DMSO, resulting in a final concentration of 1% (v/v) DMSO in every well (2 μl inhibitor in 200 μl cell culture medium). Cycloheximide (2.5 μg/ml) and Camptothecin (0.2 μg/ml) are used as control compounds. All measurements are performed in triplicates.
Cytotoxicity of transglutaminase inhibitors is evaluated with two different assays:
(§4) Determination of proliferation using Cell Proliferation ELISA, BrdU (Roche, Cat. No. 11647229001).
After 24 h of incubation with inhibitors or controls, BrdU is added to the cells. After further incubation for 18 h, the cells are fixed and cellular DNA becomes denatured. […] Substrate solution is added and absorbance at 450 nm is recorded. […]
(§5) After 48 h of incubation with inhibitors or controls, the tetrazolium substrate is added to the cells. Substrate turnover by the cells is measured over two hours at 450 nm (using 630 nm was reference wavelength).

[1] = system: CaCo2 (human colon carcinoma cell line); test: Cell Proliferation ELISA, BrdU; format: cell-based
Method: as §1, §2, §3, §4
(§6) After 24 h of incubation with inhibitors or controls, BrdU is added to the cells. After further incubation for 18 h, the cells are fixed and cellular DNA becomes denatured. A monoclonal antibody (conjugated with peroxidase) raised against BrdU is added to the wells and binds to BrdU which is incorporated into the DNA. Substrate solution is added and absorbance at 450 nm is recorded. Further analysis is performed according to the manufacturer's protocol.

[2] = system: Huh7 (human liver carcinoma cell line); test: Cell Proliferation ELISA, BrdU; format: cell-based
Method: as §1, §2, §3, §4, §6

[3] = system: CaCo2 (human colon carcinoma cell line); test: Metabolic activity, EZ4U-Assay; format: cell-based
Method: as §1, §2, §3
(§7) Determination of metabolic activity using EZ4U-Assay (Biomedica, Cat. No. BI-5000).
as §5

[4] = system: Huh7 (human liver carcinoma cell line); test: Metabolic activity, EZ4U-Assay; format: cell-based
Method: as §1, §2, §3, §7, §5

COC(=O)[C@H](CC(C)C)NC(=O)[C@@H]1CCCN1C(=O)[C@@H](NC(=O)[C@H](CCC(=O)C=[N+]=[N-])NC(=O)OCc1ccccc1)C(C)C [Compound Z006, Z-DON-VPL-OMe, reference compound] (Cbz-[DON]VPL-OMe)
concentration at which cytotoxic (reduced cell proliferation and metabolic activity) (CaCo2 and Huh7 cells): 125 µM
Cytotoxicity concentration (>10% deviation from negative control), BrdU, Caco2 [1]: 250 µM
Cytotoxicity concentration (>10% deviation from negative control), BrdU, Huh-7 [2]: 125 µM
Cytotoxicity concentration (>10% deviation from negative control), EZ4U, Caoo2 [3]: 500 µM
Cytotoxicity concentration (>10% deviation from negative control), EZ4U, Huh-7 [4]: 125 µM
